Laboratory results taken from patent publication US12435026B2, “Solabegron zwitterion and uses thereof” (B3AR THERAPEUTICS, INC., priority 2015, dated 2025).

Legend:
[1] = Solubility among forms of solabegron; format: physicochemical
Text: After extensive effort, applicants have newly discovered two crystalline forms of solabegron zwitterion. One form, form I, is an anhydrous crystalline form and is characterized by an x-ray powder diffraction pattern having peaks expressed in degrees 2θ (±2) at 6.2, 12.5; 18.8; 20.6; and 25.2. A second form, form II is a hydrate of isopropanol solvate and is characterized by an x-ray powder diffraction pattern having peaks expressed in degrees 2θ (±2) at 17.6, 18.7, 19.6, 20.1, 20.5, 23.7, and 25.8. (See EXAMPLE 3 and FIGS. 7, 12 and 14). […] After isolation the solabegron crystals can be dissolved and then crystallized to the solabegron HCL salt form, which is currently being investigated clinically. Of equal importance, the pharmaceutical compositions of solabegron zwitterion disclosed herein could be used as the active ingredient clinically, replacing the need for the HCl salt form of solabegron.

[2] = Relative stability of solabegron zwitterion Forms I and II via slurry conditioning in IPA/H2O; format: physicochemical; settings: for relative stability of crystal forms: slurry conditioning in IPA/H2O with different ratio (FIG. 10)
Description: The relative stability of solabegron zwitterion Forms I and II was evaluated via slurry conditioning of either solabegron zwitterion Form I or a mixture of solabegron zwitterion Forms I and II in IPA/H2O with different ratio, for a) confirmation of relative stability of the two solabegron zwitterion forms, and b) rational process design and control. The table in FIG. 10 lists the testing conditions and results.

[3] = test system: women with moderate to severe OAB; settings: Ohlstein et al., Eur. Urol. 2012; cited from earlier work

Compound: O=C(O)c1cccc(-c2cccc(NCCNC[C@H](O)c3cccc(Cl)c3)c2)c1 [Solabegron zwitterion]
- solubility relative to other forms of solabegron [1]: least soluble form of solabegron

Compound: O=C(O)c1cccc(-c2cccc(NCCNC[C@H](O)c3cccc(Cl)c3)c2)c1 [solabegron zwitterion Form II]
- relative stability of crystal forms [2]: more stable than solabegron zwitterion Form I
- relative stability of crystal forms ([2]; listed as form II solabegron zwitterion): more stable than the form I solabegron zwitterion

Compound: O=C(O)c1cccc(-c2cccc(NCCNC[C@H](O)c3cccc(Cl)c3)c2)c1 [solabegron zwitterion Form I]
- crystal form resulting from slurry conditioning ([2]; starting with Form I alone or a mixture of Forms I and II, IPA/H2O with different ratio (FIG. 10)): Solabegron zwitterion Form II resulted from all tested conditions

Compound: O=C(O)c1cccc(-c2cccc(NCCNC[C@H](O)c3cccc(Cl)c3)c2)c1 [solabegron, 3′-[(2-{[(2R)-2-(3-chlorophenyl)-2-hydroxyethyl]amino}ethyl)amino]biphenyl-3-carboxylic acid]
- safety and tolerability; adverse events as compared to placebo [3]: safe, well tolerated, and does not demonstrate significant differences in adverse events as compared to placebo
- symptoms of OAB [3]: significantly reduced the symptoms of OAB
